# Assay results as given in article PMC10914731, “Homo-BacPROTAC-induced degradation of ClpC1 as a strategy against drug-resistant mycobacteria” (Nature Communications, 2024).
# Values joined by “and” are separate entries in the source; they are usually repeats but may differ in a detail not shown here. Equal values may be shown once. Read-outs that look alike come from different tables or passages of the source. *1 amine or outer side, *2 acyl side, *3 side chain or, on linkers, in order; H or OH if unused. Where a SMILES comes first, the peptide text is derived from it. [ ]: non-standard residue; d: D form. X3 = C#CCOc1ccc([C@@H](OC)[C@H](N[*:1])C(=O)[*:2])cc1; X2 = C#CCn1cc(C[C@@H](C(=O)[*:2])N(C)[*:1])c2ccccc21; NMeTrp(1-Me) = CN[C@@H](Cc1cn(C)c2ccccc12)C(=O)O; X4 = C=CCO[C@H](c1ccccc1)[C@H](N[*:1])C(=O)[*:2]; NMeLeu(5-OH,4R) = CN[C@@H](C[C@@H](C)CO)C(=O)O; Phe(βR-OMe) = CO[C@H](c1ccccc1)[C@H](N)C(=O)O; Trp(1-Me) = Cn1cc(C[C@H](N)C(=O)O)c2ccccc21; NMeL = CN[C@@H](CC(C)C)C(=O)O
# Columns and labels:
# [1] = Microsomal stability, human; assay type: in vitro ADME; settings: for Microsomal Stability Human: clearance in microsomes
# Protocol: (§1) The kinetics of compound degradation in liver microsomes is assessed in an assay with 1 µmol/l of compound and 0.5 mg/ml liver microsomes in a medium of 100 mM Tris-HCl pH 7.5, 6.5 mM MgCl2 and 1 mM NADPH at 37 °C. The reaction is stopped at multiple time points by adding acetonitrile. After centrifugation, the compound concentration is measured in the supernatants by high-performance liquid chromatography (HPLC) tandem mass spectrometry (MS/MS). The results are fitted to a first-order decay and the half-lives are converted to clearance (stated as % of the liver blood flow (%Qh)) using the well-stirred liver model.
# [2] = tested on: Msm 700084; assay: microbe, parasite or virus in culture; assay type: cell-based
# [3] = biological target: ClpC1 NTD protein (M. tuberculosis) (Mycobacterium tuberculosis, UniProt P9WPC9); assay: biochemical; assay type: binding
# [4] = tested on: M. tuberculosis H37Rv (ATCC 27294); assay: microbe, parasite or virus in culture; assay type: cell-based
# [5] = assay type: in vitro ADME, Rat; settings: for Microsomal Stability Rat: clearance in microsomes
# Protocol: as §1
# [6] = tested on: Msm 607; assay: microbe, parasite or virus in culture; assay type: cell-based
# [7] = assay type: in vitro ADME, Rat; settings: rat, pH 7.4
# [8] = assay type: in vitro ADME, Mice; settings: for Microsomal Stability Mice: clearance in microsomes
# Protocol: as §1
# [9] = assay type: in vitro ADME, Human; settings: human, pH 7.4
# [10] = in vitro; settings: human; for efflux ratio: Caco-2
# Method in brief: (§2)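 Permeability across Caco-2 monolayers was measured in both directions, apical-to-basolateral and basolateral-to-apical, in 10^-6 cm s-1. Efflux ratio = P(B−A)/P(A−B). Intrinsic permeability is the mean of P(A−B) and P(B−A).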
# [11] = tested on: Caco-2 monolayers; assay: in vitro; settings: human, Caco-2
# Method in brief: as §2
# [12] = Hepatocyte stability, mice; assay type: in vitro ADME; settings: mouse, pH 7.4
# Method in brief: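 Clearance expressed as % of liver blood flow (% Qh), derived from half-life via the well-stirred liver model. Compound at 1 µM final was incubated up to 6 h with ~1 million cells/mL hepatocytes in 50% serum buffer, 37 °C, pH 7.4.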
# [13] = Mycolicibacterium smegmatis, 700084, single determinations, read-out: Msm 700084 MIC
# [14] = Mycolicibacterium smegmatis, 700084, read-out: MIC Msm 700084
# [15] = SPR (Supplementary Table 1), read-out: KD ClpC1-NTD Mean ± SD
# [16] = SPR, single independent measurements
# [17] = SPR, single independent measurements, read-out: KD ClpC1-NTD
# [18] = SPR, single independent measurements, read-out: koff ClpC1-NTD
# [19] = Mycobacterium tuberculosis, Mtb H37Rv (Supplementary Table 2), read-out: MIC Mtb
# [20] = Mycobacterium tuberculosis, single determinations, read-out: Mtb MIC
# [21] = Mycolicibacterium smegmatis, 607, read-out: MIC Msm 607
# [22] = Mycolicibacterium smegmatis, 607, read-out: Msm 607 MIC, single determinations
# [23] = Caco-2, Caco-2 permeability P (A-B)
# [24] = SPR dissociation rate constant, read-out: koff ClpC1-NTD Mean ± SD
# [25] = SPR, individual measurements (source data), read-out: KD ClpC1-NTD
# [26] = SPR, read-out: ClpC1-NTD KD Mean ± SD
# [27] = Mycobacterium tuberculosis, M. tuberculosis H37Rv strain, read-out: MIC Mtb H37Rv Mean ± SD
# ClpC1 NTD protein (M. tuberculosis), sequence (P9WPC9 1-156, looked up, natural form): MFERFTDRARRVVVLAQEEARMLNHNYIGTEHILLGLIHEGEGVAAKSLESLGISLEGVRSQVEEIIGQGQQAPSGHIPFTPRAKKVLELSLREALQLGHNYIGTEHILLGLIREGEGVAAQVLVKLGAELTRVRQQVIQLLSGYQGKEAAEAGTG
SMILES,Microsomal Stability Human QH [1],Microsomal Stability Human [1],"MIC [2, 13]","MIC [2, 14]","Kd [3, 15]","MIC [4, 19]","MIC [4, 20]",Microsomal Stability Rat QH [5],Microsomal Stability Rat [5],"MIC [6, 21]","MIC [6, 22]",Hepatocyte Rat [7],Hepatocyte Stability Rat QH [7],Microsomal Stability Mouse QH [8],Microsomal Stability Mice [8],Hepatocyte Stability Human QH [9],"Papp B→A ([10]; Caco-2, CACO permeability PEBA)",Caco-2 Int. Perm [11],Hepatocyte Mice [12],Hepatocyte Stability Mouse QH [12],further results
"C#CCOc1ccc([C@@H](OC)[C@@H]2NC(=O)[C@H](C)NC(=O)[C@H](C[C@@H](C)CO)N(C)C(=O)[C@H](Cc3cn(C)c4ccccc34)NC(=O)[C@H](C(C)C)NC(=O)[C@H](CC(C)C)N(C)C(=O)[C@H](C(C)C)NC2=O)cc1 [SI-38] (cyclo(A[X3]V[NMeL]V[Trp(1-Me)][NMeLeu(5-OH,4R)]))",83.600%,84 %Qh,12.5 µM,12.5 µM,5.6 ± 0.6 nM,1.6 µM,1.56 µM,58.700%,59 %Qh,25 µM,25 µM,37 %Qh,37.130%,72.800%,73 %Qh,19.299%,18 ×10⁻⁶ cm/s,9.1,15 %Qh,15.001%,"koff ClpC1-NTD [3, 16]: 0.04 s⁻¹; Kd [3, 17]: 6 nM and 5.19 nM; koff [3, 18]: 0.06 s⁻¹; Hepatocyte Human [9]: 19 %Qh; Papp A→B [10, 23]: < 0.2 ×10⁻⁶ cm/s; Papp B→A ([10]; Caco-2, Caco-2 permeability P (B-A)): 18 ×10⁻⁶ cm/s"
"CO[C@H](c1ccccc1)[C@@H]1NC(=O)[C@H](C)NC(=O)[C@H](C[C@@H](C)CO)N(C)C(=O)[C@H](Cc2cn(C)c3ccccc23)N(C)C(=O)[C@H](CCC(=O)N(C)C)NC(=O)[C@H](CC(C)C)N(C)C(=O)[C@H](C(C)C)NC1=O [SI-76] (cyclo(A[Phe(βR-OMe)]V[NMeL]E(NMe2)[NMeTrp(1-Me)][NMeLeu(5-OH,4R)]))",>88.400%,> 88 %Qh,25 µM,25 µM,26 ± 6 nM,6.3 µM,6.25 µM,78.000%,78 %Qh,12.5 µM,12.5 µM,52 %Qh,52.287%,>88.400%,> 88 %Qh,19.852%,10 ×10⁻⁶ cm/s,4.3,23 %Qh,23.483%,"koff [3, 24]: 0.06 s⁻¹; koff ClpC1-NTD [3, 16]: 6E-2 6E-2 1/s; Kd [3, 17]: 21.4 nM and 30.5 nM; koff [3, 18]: 0.06 s⁻¹; efflux ratio [10]: > 84; Papp A→B ([10]; Caco-2, CACO permeability PEAB): < 0.11 ×10⁻⁶ cm/s; Papp A→B [10, 23]: < 0.1 ×10⁻⁶ cm/s"
COC(c1ccccc1)C1NC(=O)C(C)NC(=O)C(CC(C)CO)N(C)C(=O)C(Cc2cn(CC=CCn3cc(CC4NC(=O)C(C(C)C)NC(=O)C(CC(C)C)N(C)C(=O)C(C(C)C)NC(=O)C(C(OC)c5ccccc5)NC(=O)C(C)NC(=O)C(CC(C)CO)N(C)C4=O)c4ccccc43)c3ccccc23)NC(=O)C(C(C)C)NC(=O)C(CC(C)C)N(C)C(=O)C(C(C)C)NC1=O (stereo not shown) [Compound 15],<24.400%,< 24 %Qh,50 µM,50 µM,,0.2 ± 0.1 µM,,<23.100%,< 23 %Qh,2.3 ± 0.9 µM,,6 %Qh,6.192%,<24.200%,< 24 %Qh,12.386%,,2.0,15 %Qh,15.001%,"Kd [3, 25]: 1.81 nM and 0.654 nM; Kd [3, 26]: 1.2 ± 0.8 nM; MIC [4, 27]: 0.2 ± 0.1 µM; MIC ([4]; individual measurements (source data), read-out: Mtb MIC): 0.200 µM and 0.390 µM and 0.097 µM (2×); Hepatocyte Human [9]: 12 %Qh; Caco-2 Efflux ratio [11]: 0.8; Caco-2 permeability P (A-B) [11]: 2.2; Caco-2 permeability P (B-A) [11]: 1.8"
"CO[C@H](c1ccccc1)[C@@H]1NC(=O)[C@H](C)NC(=O)[C@H](C[C@@H](C)CO)N(C)C(=O)[C@H](Cc2cn(C)c3ccccc23)NC(=O)[C@H](CCC(=O)N(C)C)NC(=O)[C@H](CC(C)C)N(C)C(=O)[C@H](C(C)C)NC1=O [SI-74] (cyclo(A[Phe(βR-OMe)]V[NMeL]E(NMe2)[Trp(1-Me)][NMeLeu(5-OH,4R)]))",85.000%,61 %Qh,6.25 µM,9.4 ± 4.4 µM,4 ± 2 nM,3.1 µM,3.12 µM,60.700%,85 %Qh,0.8 µM,0.78 µM,49 %Qh,48.537%,83.700%,84 %Qh,12.386%,3.4 ×10⁻⁶ cm/s,1.7,38 %Qh,37.632%,"MIC ([2]; single determinations, read-out: Msm 700084 MIC): 12.500 µM; Kd [3, 17]: 3.28 nM and 5.58 nM; Hepatocyte Human [9]: 12 %Qh; efflux ratio [10]: > 6; Papp A→B ([10]; Caco-2, CACO permeability PEAB): < 0.46 ×10⁻⁶ cm/s; Papp A→B [10, 23]: < 0.5 ×10⁻⁶ cm/s"
"C=CCO[C@H](c1ccccc1)[C@@H]1NC(=O)[C@H](C)NC(=O)[C@H](C[C@@H](C)CO)N(C)C(=O)[C@H](Cc2cn(C)c3ccccc23)NC(=O)[C@H](C(C)C)NC(=O)[C@H](CC(C)C)N(C)C(=O)[C@H](C(C)C)NC1=O [Compound 14] (cyclo(A[X4]V[NMeL]V[Trp(1-Me)][NMeLeu(5-OH,4R)]))",>88.4 >88.4%,> 88 %Qh,12.5 µM,12.5 µM,10 ± 1 nM,3.1 µM,3.12 µM,84.3% and 84%,84 %Qh,1.6 µM,1.56 µM,57 %Qh,56.626%,>88.4 >88.4%,> 88 %Qh,41.006%,30 ×10⁻⁶ cm/s,21.7,29 %Qh,28.905%,"Kd [3, 17]: 9.31 nM and 10.7 nM; Hepatocyte Human [9]: 41 %Qh; efflux ratio [10]: 12.1"
"C#CCn1cc(C[C@H]2C(=O)N(C)[C@@H](C[C@@H](C)CO)C(=O)N[C@@H](C)C(=O)N[C@@H]([C@H](OC)c3ccccc3)C(=O)N[C@@H](C(C)C)C(=O)N(C)[C@@H](CC(C)C)C(=O)N[C@@H](C(C)C)C(=O)N2C)c2ccccc21 [Compound 26] (cyclo(A[Phe(βR-OMe)]V[NMeL]V[X2][NMeLeu(5-OH,4R)]))",>88.400%,> 88 %Qh,12.5 µM,12.5 µM,,6.3 µM,6.25 µM,>87.900%,> 88 %Qh,6.3 µM,6.25 µM,68 %Qh,67.861%,>88.400%,> 88 %Qh,43.919%,49 ×10⁻⁶ cm/s,24.0,67 %Qh,66.557%,"koff [3, 24]: 0.04 s⁻¹; Kd [3, 25]: 17 nM and 12.3 nM; koff ClpC1-NTD [3, 16]: 4E-2 4E-2 1/s; koff [3, 18]: 0.04 s⁻¹; Kd [3, 26]: 15 ± 3 nM; MIC [4, 27]: 6.3 µM; MIC ([4]; Mycobacterium tuberculosis, individual measurements (source data), read-out: Mtb MIC): 6.25 µM; efflux ratio [10]: 2.2; Papp A→B ([10]; Caco-2, CACO permeability PEAB): 25 ×10⁻⁶ cm/s; Influence of N-methylation on permeability [11]: 9.3; Permeability Correlation P (A-B) [11]: 13.6; Permeability Correlation Ratio [11]: 9.3"
